For one data set, the target named is Coagulation factor X (Homo sapiens, UniProt P00742). Kind of data set: In vitro binding affinity for human Coagulation factor X.
Data set [1] in a line: Ionization constant was determined for the compound. Format: physicochemical.
A further data set concerns the target Prothrombin (Homo sapiens, UniProt P00734). Kind of data set: Binding affinity towards thrombin.
For another data set, the target named is Serine protease 1 (Homo sapiens, UniProt P07477). Description: Binding affinity towards trypsin.
Another data set concerns Caco-2. Description: Compound was tested in vitro for its percent absorption towards CaCo-2 cell monolayer. The note with it: Homo sapiens. In kind it is functional, cell-based.
Data set [2] in a line: Oral bioavailability in dog (dose 10 mg/kg). Format: ADME, organism-based, Canis lupus familiaris. The note with it: in vivo.
Data set [3] in a line: Half life period after peroral administration (10 mpk) was determined in dog. The note with it: in vivo, po, 10 mg/kg. Format: ADME, organism-based, Canis lupus familiaris.
The next data set is filed under the species Canis familiaris. Kind of data set: Concentration of inhibitor required to double the activated partial thromboplastin time in dog was determined. The note with it: Canis lupus familiaris. Format: functional, organism-based.
A further data set is filed under the species Homo sapiens. Description: Concentration of inhibitor required to double the activated partial thromboplastin time in human was determined. Format: functional, organism-based.
Data set [4] can be described thus: Maximum plasma concentration after peroral administration (10 mpk) was determined in dog. In kind it is ADME, organism-based, Canis lupus familiaris. Details: route oral. The note with it: po, 10 mg/kg.
Data set [5] is described as follows: Ionization constant is the negative logarithm of the equilibrium coefficient of the neutral and charged forms of the compound. In kind it is physicochemical.
The nature of data set [6]: Percent oral bioavailability after peroral administration (5 mpk) was determined in dog. In kind it is ADME, organism-based, Canis lupus familiaris. The note with it: in vivo, 5 mg/kg.
Data set [7] is described as follows: Half life period after peroral administration (5 mpk) was determined in dog. In kind it is ADME, organism-based, Canis lupus familiaris. The note with it: in vivo, po, 5 mg/kg.
Data set [8] is described as follows: Maximum plasma concentration after peroral administration (5 mpk) was determined in dog. Format: ADME, organism-based, Canis lupus familiaris. The arrangement: route oral. The note with it: po, 5 mg/kg.

Serine protease 1, sequence (P07477 whole entry): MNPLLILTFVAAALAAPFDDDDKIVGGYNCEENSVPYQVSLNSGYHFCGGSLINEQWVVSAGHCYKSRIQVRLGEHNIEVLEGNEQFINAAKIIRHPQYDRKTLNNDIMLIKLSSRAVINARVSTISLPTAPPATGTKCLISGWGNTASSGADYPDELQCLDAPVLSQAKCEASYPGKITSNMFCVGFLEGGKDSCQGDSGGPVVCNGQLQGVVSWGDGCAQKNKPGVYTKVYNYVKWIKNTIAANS
Coagulation factor X, sequence (P00742 41-179 limits assumed): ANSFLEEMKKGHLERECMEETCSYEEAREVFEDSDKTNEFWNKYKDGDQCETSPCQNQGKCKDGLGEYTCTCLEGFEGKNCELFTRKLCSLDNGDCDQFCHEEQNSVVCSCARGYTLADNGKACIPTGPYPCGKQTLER
Coagulation factor X, sequence (P00742 235-488 limits assumed): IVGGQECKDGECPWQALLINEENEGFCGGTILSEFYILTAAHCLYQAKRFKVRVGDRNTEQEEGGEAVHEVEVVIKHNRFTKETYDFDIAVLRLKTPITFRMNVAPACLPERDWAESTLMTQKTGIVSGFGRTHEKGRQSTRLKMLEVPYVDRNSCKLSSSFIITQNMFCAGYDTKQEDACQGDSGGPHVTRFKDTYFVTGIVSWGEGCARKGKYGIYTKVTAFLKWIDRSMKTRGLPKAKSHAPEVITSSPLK

For the compound `O=C1CN(S(=O)(=O)c2ccc(-c3ccc(Cl)s3)s2)CCN1Cc1cc2c[nH]ccc-2n1`, the Ki on Coagulation factor X is 0.023 µM.
In turn, `O=C1CN(S(=O)(=O)c2cc3ccc(Cl)cc3s2)CCN1Cc1cc2[nH]cccc-2n1` gave a pKa in data set [1] of 6.9. In addition, the Ki is > 1.2 µM at Coagulation factor X, > 3.9 µM at Prothrombin and > 2.9 µM at Serine protease 1.
As for `O=C1CN(S(=O)(=O)c2cc3ncccc3s2)CCN1Cc1cc2c[nH]ccc-2n1`, the Ki at Coagulation factor X was > 1.2 µM.
Consider `Cn1c(CN2CCN(S(=O)(=O)c3cc4ccc(Cl)cc4s3)CC2=O)cc2cnccc21`, for which the Absorption in the data set with Caco-2 stood at 3%. Also, the Ki at Coagulation factor X was 0.003 µM; at Prothrombin it was > 3.9 µM; on Serine protease 1, > 2.9 µM.
In the case of `O=C(O)Cn1c(CN2CCN(S(=O)(=O)c3cc4ccc(Cl)cc4s3)CC2=O)cc2cnccc21`, the Ki on Coagulation factor X was 0.154 µM; on Prothrombin it was > 3.9 µM; on Serine protease 1, > 2.9 µM.
Consider `O=C1CN(S(=O)(=O)c2cc3ccc(Cl)cc3s2)CCN1Cc1cc2c(O)[nH]ccc-2n1`, for which the Ki at Coagulation factor X is > 1.2 µM; on Prothrombin, > 3.9 µM; on Serine protease 1, > 2.9 µM.
As to `NC(=O)Cn1c(CN2CCN(S(=O)(=O)c3cc4ccc(Cl)cc4s3)CC2=O)cc2cnccc21`, the Absorption with Caco-2 is 7%. Also, the values for the Ki on Coagulation factor X, on Prothrombin and on Serine protease 1 were 0.008 µM, > 3.9 µM and > 2.9 µM, respectively.
The compound `O=C1CN(S(=O)(=O)/C=C/c2ccc(Cl)cc2)CCN1Cc1cc2c[nH]ccc-2n1` returned a Ki on Coagulation factor X of 0.048 µM.
`COC(=O)Cn1c(CN2CCN(S(=O)(=O)c3cc4ccc(Cl)cc4s3)CC2=O)cc2cnccc21` returned an Absorption with Caco-2 of 47.6%. Moreover, the Ki is 0.018 µM at Coagulation factor X, > 3.9 µM at Prothrombin and > 2.9 µM at Serine protease 1.
In the case of `O=C1CN(S(=O)(=O)c2cc3ccc(Cl)cc3s2)CCN1Cc1cc2c[nH]ccc-2n1`, the bioavailability in data set [2] amounted to 99%. In data set [3], this compound displayed a half-life of 36 min. This compound also gave an Absorption with Caco-2 of 6%. Moreover, the Ki is 2.9 µM at Prothrombin and > 2.9 µM at Serine protease 1. Also, the Concentration was found to be 5 µM in the data set filed under Canis familiaris and 2 µM in the data set filed under Homo sapiens. In [4], this compound registered a Cmax of 658 nM. Further, the pKa in data set [5] stood at 8.3.
Turning to `COc1cc(/C=C/S(=O)(=O)N2CCN(Cc3cc4c[nH]ccc-4n3)C(=O)C2)sc1Cl`, the Ki on Coagulation factor X is > 1.2 µM.
`O=C1CN(S(=O)(=O)c2cc3ccc(Cl)cc3s2)CCN1Cc1nc2cc[nH]cc-2n1` had a pKa in [1] of 6.1. The inhibitory constant (Ki) at Coagulation factor X was > 1.2 µM; at Prothrombin, > 3.9 µM; on Serine protease 1, > 2.9 µM.
The compound `Nc1[nH]ccc2nc(CN3CCN(S(=O)(=O)c4cc5ccc(Cl)cc5s4)CC3=O)cc1-2` returned a pKa in [1] of 9.3. For the same compound, the Ki on Prothrombin is > 3.9 µM; on Serine protease 1 it was > 2.9 µM.
In turn, `O=C1CN(S(=O)(=O)c2cc3ccc(Br)cc3s2)CCN1Cc1cc2c[nH]ccc-2n1` showed a Ki at Coagulation factor X of 0.003 µM. In other words, the single-digit nanomolar range.
In data set [2], `O=C1CN(S(=O)(=O)c2cc3ccc(Cl)cc3s2)CCN1Cc1cc2cnccc2n1CCO` gave a bioavailability of 11%. In data set [3], this compound showed a half-life of 139 min. Further, the concentration in data set [4] peaked (Cmax) at 783 nM.
At Coagulation factor X, `O=C1CN(S(=O)(=O)c2cc3ccccc3s2)CCN1Cc1cc2c[nH]ccc-2n1` returned an inhibitory constant (Ki) of 0.959 µM.
In turn, `O=C1CN(S(=O)(=O)/C=C/c2ccc(Cl)s2)CCN1Cc1cc2c[nH]ccc-2n1` had a bioavailability in data set [6] of 97%. For the same compound, the half-life in data set [7] is 52 min. In addition, in [8], the Cmax was determined as 1640 nM. Moreover, the figures for the Concentration in the data set listed under Canis familiaris and in the data set listed under Homo sapiens were 2.2 µM and 0.59 µM, respectively.
In the case of `O=C1CN(S(=O)(=O)c2cc3ccc(Cl)cc3s2)CCN1Cc1cc2c[n+]([O-])ccc2[nH]1`, the figures for the Ki at Coagulation factor X, at Prothrombin and at Serine protease 1 were 0.038 µM, > 3.9 µM and > 2.9 µM, respectively.
As for `O=C1CN(S(=O)(=O)c2sc3ccccc3c2Cl)CCN1Cc1cc2c[nH]ccc-2n1`, the Ki on Coagulation factor X was > 1.2 µM.
As to `O=C1CN(S(=O)(=O)c2cc3ccc(Cl)cc3s2)CCN1Cc1cc2cc[nH]cc-2n1`, the pKa in [1] is 8. The figures for the Ki on Coagulation factor X, on Prothrombin and on Serine protease 1 were 0.045 µM, 3.9 µM and > 2.9 µM, respectively.
With `O=C1CN(S(=O)(=O)CCc2ccc(Cl)s2)CCN1Cc1cc2c[nH]ccc-2n1`, the inhibition constant Ki on Coagulation factor X was 0.128 µM.
On the same count and under the same terms, the value for `O=C1CN(S(=O)(=O)c2cc3ccc(Cl)nc3s2)CCN1Cc1cc2c[nH]ccc-2n1` was 0.004 µM; that for `O=C1CN(S(=O)(=O)c2cc3ncc(Cl)cc3s2)CCN1Cc1cc2c[nH]ccc-2n1` was 1.2 µM.
`O=C1CN(S(=O)(=O)c2cc3ccc(Cl)cc3s2)CCN1Cc1cc2cnccc2o1` displayed a pKa in data set [1] of 5.8. In addition, the Ki at Coagulation factor X is 1.22 µM; at Prothrombin it was > 3.9 µM; on Serine protease 1, > 2.9 µM.
Consider `O=C1CN(S(=O)(=O)c2ccc(-c3ccc(Cl)cc3)cc2)CCN1Cc1cc2c[nH]ccc-2n1`, for which the Ki at Coagulation factor X was > 1.2 µM.
As for `O=C1CN(S(=O)(=O)c2cc3cccnc3s2)CCN1Cc1cc2c[nH]ccc-2n1`, the Ki at Coagulation factor X was > 1.2 µM.

As a reminder, the Ki is the equilibrium dissociation constant of an inhibitor or competing ligand from its target. Low values mean higher affinity, high ones lower affinity. One may read the pKa as the pH at which an ionisable group is half protonated. A high value points to a weaker acid or stronger base. The term bioavailability denotes dose-corrected exposure relative to a reference, in per cent. The term half-life denotes the time needed for the level to fall by half in the phase considered. The term Cmax denotes the highest concentration seen after dosing.

These data come from ChEMBL document CHEMBL1144944, “Discovery of an orally efficacious inhibitor of coagulation factor Xa which incorporates a neutral P1 ligand” (J Med Chem, 2003).
